Test [1] deals with Beta-2 adrenergic receptor (Homo sapiens, UniProt P07550). In words: Displacement of [3H](-)CGP12177 from human beta2-AR expressed in CHOK1 cells after 2 hrs by TopCount microscintillation counting method. Background: Loss of bound radioactivity is the signal in a displacement assay; it reports binding, not function.
Test [2] addresses Beta-1 adrenergic receptor (Homo sapiens, UniProt P08588). The test can be described thus: Displacement of [3H](-)CGP12177 from human beta1-AR expressed in CHOK1 cells after 2 hrs by TopCount microscintillation counting method.

Chain of Beta-2 adrenergic receptor (P07550 whole entry): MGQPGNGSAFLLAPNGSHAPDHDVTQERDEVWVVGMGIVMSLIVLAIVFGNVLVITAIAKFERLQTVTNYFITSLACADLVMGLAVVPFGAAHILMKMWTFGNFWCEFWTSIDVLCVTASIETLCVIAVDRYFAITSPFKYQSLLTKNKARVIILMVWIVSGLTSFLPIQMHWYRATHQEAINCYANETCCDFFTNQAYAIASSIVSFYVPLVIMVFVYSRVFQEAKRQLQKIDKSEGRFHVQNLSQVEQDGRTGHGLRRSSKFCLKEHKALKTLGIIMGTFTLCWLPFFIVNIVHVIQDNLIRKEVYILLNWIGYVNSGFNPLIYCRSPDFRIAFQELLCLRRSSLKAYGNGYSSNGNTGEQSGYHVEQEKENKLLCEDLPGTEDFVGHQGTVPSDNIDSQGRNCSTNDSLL
Chain of Beta-1 adrenergic receptor (P08588 whole entry): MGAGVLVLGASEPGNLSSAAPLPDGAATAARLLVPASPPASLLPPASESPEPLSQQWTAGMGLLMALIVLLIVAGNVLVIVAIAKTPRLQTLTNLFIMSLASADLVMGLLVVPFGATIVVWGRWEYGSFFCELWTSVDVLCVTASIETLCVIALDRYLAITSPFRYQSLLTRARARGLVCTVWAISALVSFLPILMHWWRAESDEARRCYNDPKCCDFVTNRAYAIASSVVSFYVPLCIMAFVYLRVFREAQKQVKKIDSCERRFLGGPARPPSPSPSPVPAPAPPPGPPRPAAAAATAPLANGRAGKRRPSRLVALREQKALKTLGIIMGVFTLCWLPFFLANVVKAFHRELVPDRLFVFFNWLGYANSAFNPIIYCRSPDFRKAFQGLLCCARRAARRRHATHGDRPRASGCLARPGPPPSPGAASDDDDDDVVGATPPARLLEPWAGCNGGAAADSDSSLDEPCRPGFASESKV

Take `Cc1cc(O)c(CN(C)C)c2c1C(=O)/C(=C/c1ccccc1)O2`: the Kd in test [1] is 25.1 µM; in test [2], 46.8 µM. In the case of `CN(C)CCOc1ccc2ccccc2c1C=O`, binding in test [2] was put at a Kd of 97.7 µM. Same read-out and setting: the same measure for `C[n+]1c(/C=C/Nc2ccccc2)sc2ccccc21`: 257 µM. Turning to `Cc1cc(O)c(CN2CCCC2)c2c1C(=O)/C(=C/c1cc3ccccc3o1)O2`, the values for the equilibrium dissociation constant (Kd) in test [1] and in test [2] were 14.5 µM and 38 µM, respectively. `CCCCN(C)Cc1c(O)cc(C)c2c1O/C(=C\c1cc3cc(Br)ccc3o1)C2=O`: the Kd in test [1] amounted to 17.8 µM. That is a double-digit micromolar value.

A word on the Kd: it is the free concentration of one partner at which half of the binding sites on the other are occupied at equilibrium, for simple one-to-one binding. Lower therefore signals tighter binding.

For the origin of these results see BindingDB's records for doi:10.1021/acsmedchemlett.6b00363 (Philipps University Marburg, 2017).
